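Test compounds were applied to cells in 96-well plates for 48 hours at 5 doses. The concentration for 50% growth inhibition is given as GI50.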 Calls of active or inactive are those of the source. Cut-off read from the data, not from the text of the source: active = GI50 up to about 1.1 µM and inactive = higher.
Columns and labels:
Assay in all cases: NCI tumour cell line growth inhibition, 48 h
A498 = tested on: A498
SNB-19 = tested on: SNB-19
DMS-114 = tested on: DMS-114
A549 = tested on: A549
HCT-116 = tested on: HCT-116
SF-295 = tested on: SF-295
UACC-62 = tested on: UACC-62
HL-60 = tested on: HL-60
DMS-273 = tested on: DMS-273
SNB-75 = tested on: SNB-75
HCT-15 = tested on: HCT-15
OVCAR-4 = tested on: OVCAR-4
SN12C = tested on: SN12C
LOX IMVI = tested on: LOX IMVI
NCI-H522 = tested on: NCI-H522

| SMILES | GI50 (A498) | GI50 (SNB-19) | GI50 (DMS-114) | GI50 (A549) | GI50 (HCT-116) | GI50 (SF-295) | GI50 (UACC-62) | GI50 (HL-60) | GI50 (DMS-273) | GI50 (SNB-75) | GI50 (HCT-15) | GI50 (OVCAR-4) | GI50 (SN12C) | GI50 (LOX IMVI) | GI50 (NCI-H522) |
| --- | --- | --- | --- | --- | --- | --- | --- | --- | --- | --- | --- | --- | --- | --- | --- |
| CC(C)CC(CNC(Cc1ccc(Cl)cc1)C(N)=O)NC(=O)C(Cc1c[nH]cn1)NC(=O)CNC(=O)C(NC(=O)C(C)NC(=O)C(Cc1c[nH]c2ccccc12)NC(=O)C(CCC(=O)O)NC(=O)C(N)Cc1ccccc1)C(C)C (stereo unspecified) | > 133 µM (inactive) | > 133 µM (inactive) | 119 µM (inactive) | > 133 µM (inactive) | > 133 µM (inactive) | > 133 µM (inactive) | > 133 µM (inactive) | > 133 µM (inactive) | > 133 µM (inactive) | > 133 µM (inactive) | > 133 µM | > 133 µM (inactive) | > 133 µM (inactive) | – | – |
| O=C1NC2OC(CO)C(O)C(O1)C2O (stereo unspecified) | > 100 µM (inactive) | > 100 µM (inactive) | > 100 µM (inactive) | – | – | > 100 µM (inactive) | > 100 µM (inactive) | > 100 µM (inactive) | > 100 µM (inactive) | > 100 µM (inactive) | > 100 µM | > 100 µM (inactive) | > 100 µM (inactive) | > 100 µM (inactive) | > 100 µM (inactive) |
| Cc1cccc(C(C)(C)C)c1NC(=O)CCc1n[nH]c(=S)o1 | > 100 µM (inactive) | > 100 µM (inactive) | 43.3 µM (inactive) | > 100 µM (inactive) | 17.6 µM (inactive) | > 100 µM (inactive) | > 100 µM (inactive) | > 100 µM (inactive) | 40.9 µM (inactive) | > 100 µM (inactive) | 21.7 µM | > 100 µM (inactive) | > 100 µM (inactive) | – | > 100 µM (inactive) |
| CCOC(=O)c1c(/C=N\Nc2ccccc2)nc2ccccc2c1-c1ccccc1 | 60.4 µM (inactive) | 79.1 µM (inactive) | 41.6 µM (inactive) | 50.9 µM (inactive) | 42 µM (inactive) | 61.5 µM (inactive) | 25 µM (inactive) | 15 µM (inactive) | 25 µM (inactive) | 46.5 µM (inactive) | 13.6 µM | 29.9 µM (inactive) | 38.1 µM (inactive) | 35.4 µM (inactive) | 24.9 µM (inactive) |
| O=c1c2cccnc2ncn1CCCN1CCOCC1 | – | > 100 µM (inactive) | > 100 µM (inactive) | > 100 µM (inactive) | > 100 µM (inactive) | > 100 µM (inactive) | > 100 µM (inactive) | – | > 100 µM (inactive) | > 100 µM (inactive) | – | > 100 µM (inactive) | > 100 µM (inactive) | > 100 µM (inactive) | > 100 µM (inactive) |
| CCCc1n[nH]c(CCC(=O)N(Cc2ccccc2)Cc2ccccc2)c1CC | > 100 µM (inactive) | > 100 µM (inactive) | > 100 µM (inactive) | > 100 µM (inactive) | – | > 100 µM (inactive) | > 100 µM (inactive) | – | > 100 µM (inactive) | > 100 µM (inactive) | > 100 µM | > 100 µM (inactive) | > 100 µM (inactive) | > 100 µM (inactive) | > 100 µM (inactive) |
| O=CN1CCN(C=S)CC1 | > 100 µM (inactive) | > 100 µM (inactive) | > 100 µM (inactive) | > 100 µM (inactive) | > 100 µM (inactive) | > 100 µM (inactive) | > 100 µM (inactive) | > 100 µM (inactive) | > 100 µM (inactive) | > 100 µM (inactive) | > 100 µM | > 100 µM (inactive) | > 100 µM (inactive) | > 100 µM (inactive) | > 100 µM (inactive) |
| N#CCCN(c1ccc(/C=C2\N=C(c3ccc(Cl)cc3)OC2=O)cc1)S(=O)(=O)c1ccccc1 | > 100 µM (inactive) | > 100 µM (inactive) | > 100 µM (inactive) | > 100 µM (inactive) | > 100 µM (inactive) | > 100 µM (inactive) | > 100 µM (inactive) | > 100 µM (inactive) | > 100 µM (inactive) | 76 µM (inactive) | > 100 µM | > 100 µM (inactive) | > 100 µM (inactive) | > 100 µM (inactive) | > 100 µM (inactive) |
| CN(CCCN1C(=O)c2cccc3cc([N+](=O)[O-])cc(c23)C1=O)CCN(C)CCCN1C(=O)c2cccc3cc([N+](=O)[O-])cc(c23)C1=O | > 39.3 µM (inactive) | > 39.3 µM (inactive) | 33.6 µM (inactive) | 19.2 µM (inactive) | 11.7 µM (inactive) | 22.3 µM (inactive) | 17 µM (inactive) | 19.6 µM (inactive) | 11.4 µM (inactive) | 20.4 µM (inactive) | 32.6 µM | 27.4 µM (inactive) | > 39.3 µM (inactive) | – | > 39.3 µM (inactive) |
| NC(N)NCCCc1cn2c(n1)C1CCCN1C(=O)C2Cc1ccccc1 (stereo unspecified) | > 100 µM (inactive) | > 100 µM (inactive) | > 100 µM (inactive) | > 100 µM (inactive) | > 100 µM (inactive) | > 100 µM (inactive) | > 100 µM (inactive) | – | > 100 µM (inactive) | 61 µM (inactive) | > 100 µM | > 100 µM (inactive) | > 100 µM (inactive) | > 100 µM (inactive) | > 100 µM (inactive) |
| Cc1cccc(NC(=O)CSc2nnc(Cc3ccccc3)o2)c1 | > 100 µM (inactive) | > 100 µM (inactive) | > 100 µM (inactive) | > 100 µM (inactive) | > 100 µM (inactive) | > 100 µM (inactive) | > 100 µM (inactive) | > 100 µM (inactive) | > 100 µM (inactive) | 63.8 µM (inactive) | > 100 µM | > 100 µM (inactive) | > 100 µM (inactive) | > 100 µM (inactive) | > 100 µM (inactive) |
| O=C1CCC(=O)N2CCCCN12 | > 100 µM (inactive) | > 100 µM (inactive) | > 100 µM (inactive) | > 100 µM (inactive) | > 100 µM (inactive) | > 100 µM (inactive) | > 100 µM (inactive) | > 100 µM (inactive) | > 100 µM (inactive) | > 100 µM (inactive) | > 100 µM | > 100 µM (inactive) | > 100 µM (inactive) | > 100 µM (inactive) | > 100 µM (inactive) |
| C[n+]1ccc(Nc2ccc(NC(=O)c3ccc(Nc4cc[n+](C)c5ccc([N+](=O)[O-])cc45)cc3[N+](=O)[O-])cc2)cc1 | 64 µM (inactive) | > 59.2 µM (inactive) | 0.692 µM (active) | 22 µM (inactive) | 30.5 µM (inactive) | 27.8 µM (inactive) | 31.3 µM (inactive) | – | 27.2 µM (inactive) | > 60.1 µM (inactive) | 61.2 µM | 34.5 µM (inactive) | 48.8 µM (inactive) | > 39.7 µM (inactive) | 13.8 µM (inactive) |
| COc1cc(-c2n[nH]cc2CCCC(=O)Nc2ccccc2[N+](=O)[O-])ccc1O | > 100 µM (inactive) | – | 25.4 µM (inactive) | 73.8 µM (inactive) | 45.3 µM (inactive) | > 100 µM (inactive) | 67.9 µM (inactive) | 35.9 µM (inactive) | 66.7 µM (inactive) | 20.8 µM (inactive) | 64.6 µM | > 100 µM (inactive) | > 100 µM (inactive) | > 100 µM (inactive) | 94 µM (inactive) |
| CC(=O)O[C@H]1CC[C@@]2(C)C(=CC[C@H]3C(CC#N)[C@@](C)(C#N)CCC32)C1 (stereo partly specified) | 38.5 µM (inactive) | > 100 µM (inactive) | > 100 µM (inactive) | > 100 µM (inactive) | > 100 µM (inactive) | > 100 µM (inactive) | > 100 µM (inactive) | > 100 µM (inactive) | > 100 µM (inactive) | 69.8 µM (inactive) | > 100 µM | > 100 µM (inactive) | > 100 µM (inactive) | > 100 µM (inactive) | – |
| COc1ccc(/C=C/c2cc(OC)c(OC(C)=O)c(OC)c2)cc1 | – | 25.1 µM (inactive) | 26.5 µM (inactive) | 24.8 µM (inactive) | 30.8 µM (inactive) | – | 20.1 µM (inactive) | – | 31.2 µM (inactive) | 18.5 µM (inactive) | 26.2 µM | 45.9 µM (inactive) | 24.3 µM (inactive) | – | 19.5 µM (inactive) |
| Cc1ccccc1C1CC(c2ccccc2)=NO1 (stereo unspecified) | > 100 µM (inactive) | > 100 µM (inactive) | > 100 µM (inactive) | > 100 µM (inactive) | > 100 µM (inactive) | > 100 µM (inactive) | > 100 µM (inactive) | > 100 µM (inactive) | > 100 µM (inactive) | > 100 µM (inactive) | > 100 µM | > 100 µM (inactive) | > 100 µM (inactive) | – | > 100 µM (inactive) |
| CS(=O)(=O)Oc1cccc(/C=N/N=C(\N)NO)c1 | 73.1 µM (inactive) | 64.9 µM (inactive) | 9.55 µM (inactive) | 21.8 µM (inactive) | 32.9 µM (inactive) | 49.3 µM (inactive) | 4.84 µM (inactive) | 19 µM (inactive) | 19.9 µM (inactive) | 2.96 µM (inactive) | 35.1 µM | 18 µM (inactive) | 29.2 µM (inactive) | – | 26.2 µM (inactive) |
| c1ccc2c(c1)Cc1c(Cc3csc4ccccc34)ccc3cccc-2c13 | – | > 100 µM (inactive) | > 100 µM (inactive) | > 100 µM (inactive) | > 100 µM (inactive) | > 100 µM (inactive) | > 100 µM (inactive) | > 100 µM (inactive) | > 100 µM (inactive) | 19.7 µM (inactive) | > 100 µM | 54 µM (inactive) | > 100 µM (inactive) | – | 41.3 µM (inactive) |
| CCOC(=O)C12CCCC1(O)N(NC(=O)OC(C)(C)C)C(C)=C2C(=O)OC (stereo unspecified) | > 100 µM (inactive) | > 100 µM (inactive) | > 100 µM (inactive) | > 100 µM (inactive) | > 100 µM (inactive) | > 100 µM (inactive) | > 100 µM (inactive) | > 100 µM (inactive) | > 100 µM (inactive) | – | > 100 µM | > 100 µM (inactive) | > 100 µM (inactive) | > 100 µM (inactive) | 97.3 µM (inactive) |

From ChEMBL document CHEMBL1201862, “PubChem BioAssay data set” (2004)
